Experimental data from patent publication US4504469A, “Vasotocin derivatives” (priority 1982, dated 1985).
Where two headings read alike, the source gives them in different places. Where a SMILES comes first, the peptide text is derived from it. Bridges are numbered along the chain shown (N, C = ends). [ ]: non-standard residue; d: D form. Cit = NC(=O)NCCC[C@H](N)C(=O)O; Orn = NCCC[C@H](N)C(=O)O; Mpa = O=C(O)CCS

How the values were obtained:
isolated rat uterus = type: cell-based
Protocol: The compounds according to the invention were investigated with regard to uterotonic potency on isolated rat uterus, using oxytocin as standard. The antagonistic properties of the compounds were also evaluated with the aid of this preparation. Also in vivo tests using oxytocin as the agonist were carried out, the results being compared with those obtained with Antocin.
Sprague Dawley rats (body weight approximately 250 g) in natural estrous were selected by vaginal smears. An approximately 20 mm long segment was cut from the middle of a uterine horn and mounted in an organ bath containing 10 ml of a modified Locke's solution of the following composition (mM:NaCl 153, KCl 5.63, CaCl2 0.541, NaHCO3 5.95 and glucose 2.78). The solution was gassed with 5% CO2 in oxygen at 30° C. The uterine contractions were allowed to stabilize for 30 min. Contractions were recorded isometrically at a resting tension of 1.5 g using Grass force transducers (Ft. 03). The antagonistic potency of the analogs was calculated as pA2 values (Rudinger, J. & Krejci, I. Experientia 18, (1962), 585-588). pA2 is a measure of the inhibitory effect of the peptide and was defined by Schild (Schild, H. O., British Journal of Pharmacology, 2, (1947), 189-206) as the negative logarithm of the molar concentration of an antagonist which reduces the effect of a dose of agonist to that of half the dose. The agonistic effects, if any, of the antagonists were investigated by adding to the bath containing the uterus preparation a varying amount of peptide corresponding at most to a concentration of 4 μg per ml.

[1] = Pressor effect (effect on the blood pressure); parameters: reference not given here
rat uterus in vivo = assay: In vivo inhibition of oxytocin-induced uterus contractions in rats, compared with Antocin; details: anaesthetized rats, oxytocin infusion i.v., antagonist 0.8-8.0 μg/100 g i.v.; Antocin given the value 1
Protocol: Sprague Dawley rats (250 g) in natural estrous were anaesthetized with Inactin (0.5 mg/100 g body weight i.p.). Myometrial activity was recorded by means of a catheter fixed in the uterine cavity and filled with modified Locke's solution. The catheter was connected to a Statham P23d transducer, and contractions were recorded on a Grass polygraph (model 7d). Oxytocin was infused intravenously (0.05 μg/min/100 g body weight). When a regular contraction pattern had been obtained, the antagonist (0.8-8.0 μg/100 g body weight) was administered intravenously in a volume of 0.2 ml. The recorded curve was integrated over 15 min intervals immediately before and after injection of the antagonist. The inhibition of the increase in the magnitude of the uterus contractions caused by oxytocin infusion were compared with the inhibition of the Antocin which was given the value 1.

Antidiuretic effect (AD) = assay: Antidiuretic effect (AD); parameters: unit not given here
[2] = isolated rat uterus, oxytocin as agonist, 30° C.

Molecule	Uterus in vitro antagonist pA2 (isolated rat uterus)	Pressor (effect on the blood pressure) [1]	Uterus in vivo, compared with Antocin (rat uterus in vivo)	AD (antidiuretic effect) (Antidiuretic effect (AD))	Uterus in vitro antagonist pA2 (isolated rat uterus; [2])	Type of inhibition of the oxytocin effect (isolated rat uterus)
CC[C@H](C)[C@@H]1NC(=O)[C@@H](Cc2c[nH]c3ccccc23)NC(=O)CCSSC[C@@H](C(=O)N2CCC[C@H]2C(=O)N[C@@H](CCCNC(=N)N)C(=O)NCC(N)=O)NC(=O)[C@H](CC(N)=O)NC(=O)[C@H](C(C)C)NC1=O [Example 8, 1-β-mercaptopropionic acid-2-D-tryptophane-4-valine-8-arginine vasotocin] ([Mpa][dW]IVNCPRG-NH2; disulfide 1-6)	8.4	0.12	11	0.1	–	–
CCOc1ccc(C[C@H]2NC(=O)CCSSC[C@@H](C(=O)N3CCC[C@H]3C(=O)N[C@H](CCCNC(=N)N)C(=O)NCC(N)=O)NC(=O)[C@H](CC(N)=O)NC(=O)[C@H](C(C)C)NC(=O)[C@H]([C@@H](C)CC)NC2=O)cc1 [Example 9, 1-β-mercaptopropionic acid-2-(4-ethoxy)-D-phenyl alanine-4-valine-8-D-arginine vasotocin] ([Mpa][dY](Et)IVNCP[dR]G-NH2; disulfide 1-6)	8.6	–	–	–	–	–
CC[C@H](C)[C@@H]1NC(=O)[C@@H](Cc2c[nH]c3ccccc23)NC(=O)CCSSC[C@@H](C(=O)N2CCC[C@H]2C(=O)N[C@@H](CCCN)C(=O)NCC(N)=O)NC(=O)[C@H](CC(N)=O)NC(=O)[C@H]([C@@H](C)O)NC1=O [Example 15, 1-β-mercaptopropionic acid-2-D-tryptophane-4-treonine-8-ornithine vasotocin] ([Mpa][dW]ITNCP[Orn]G-NH2; disulfide 1-6)	8.5	0.05	7.8	0.1	–	–
CCOc1ccc(C[C@H]2NC(=O)CCSSC[C@@H](C(=O)N3CCC[C@H]3C(=O)N[C@@H](CCCN)C(=O)NCC(N)=O)NC(=O)[C@H](CC(N)=O)NC(=O)[C@H]([C@@H](C)O)NC(=O)[C@H]([C@@H](C)CC)NC2=O)cc1 [Example 11, 1-β-mercaptopropionic acid-2-(4-ethoxy)-D-phenyl alanine-4-treonine-8-ornithine vasotocin] ([Mpa][dY](Et)ITNCP[Orn]G-NH2; disulfide 1-6)	–	–	–	–	8.3	–
CCOc1ccc(C[C@@H]2NC(=O)CCSSC[C@@H](C(=O)N3CCC[C@H]3C(=O)N[C@@H](CCCNC(N)=O)C(=O)NCC(N)=O)NC(=O)[C@H](CC(N)=O)NC(=O)[C@H](CCC(N)=O)NC(=O)[C@H]([C@@H](C)CC)NC2=O)cc1 [Example 3, 1-β-mercaptopropionic acid-2-(4-ethoxy)-phenyl alanine-8-citrullin vasotocin] ([Mpa]Y(Et)IQNCP[Cit]G-NH2; disulfide 1-6)	8.5	–	–	–	–	–
CCOc1ccc(C[C@@H]2NC(=O)CCSSC[C@@H](C(=O)N3CCC[C@H]3C(=O)N[C@@H](CCCN)C(=O)NCC(N)=O)NC(=O)[C@H](CC(N)=O)NC(=O)[C@H](C(C)C)NC(=O)[C@H]([C@@H](C)CC)NC2=O)cc1 [Example 6, 1-β-mercaptopropionic acid-2-(4-ethoxy)-phenyl alanine-4-valine-8-ornithine vasotocin] ([Mpa]Y(Et)IVNCP[Orn]G-NH2; disulfide 1-6)	7.6	–	–	–	–	–
CCOc1ccc(C[C@H]2NC(=O)CCSSC[C@@H](C(=O)N3CCC[C@H]3C(=O)N[C@@H](CCCN)C(=O)NCC(N)=O)NC(=O)[C@H](CC(N)=O)NC(=O)[C@H]([C@@H](C)O)NC(=O)[C@H]([C@@H](C)CC)NC2=O)cc1 [Antocin, 1-desamino-(2-0-ethyltyrosine)-oxytocin, reference compound] ([Mpa][dY](Et)ITNCP[Orn]G-NH2; disulfide 1-6)	–	< 0.1	1	< 0.2	7.2	competitive inhibition
CCOc1ccc(C[C@@H]2NC(=O)CCSSC[C@@H](C(=O)N3CCC[C@H]3C(=O)N[C@@H](CCCNC(=N)N)C(=O)NCC(N)=O)NC(=O)[C@H](CC(N)=O)NC(=O)[C@H](C(C)C)NC(=O)[C@H]([C@@H](C)CC)NC2=O)cc1 [Example 4, 1-β-mercaptopropionic acid-2-(4-ethoxy)-phenyl alanine-4-valine-8-arginine vasotocin] ([Mpa]Y(Et)IVNCPRG-NH2; disulfide 1-6)	8.5	–	–	–	–	–
CC[C@H](C)[C@@H]1NC(=O)[C@@H](Cc2c[nH]c3ccccc23)NC(=O)CCSSC[C@@H](C(=O)N2CCC[C@H]2C(=O)N[C@@H](CCCN)C(=O)NCC(N)=O)NC(=O)[C@H](CC(N)=O)NC(=O)[C@H](C(C)C)NC1=O [Example 14, 1-β-mercaptopropionic acid-2-D-tryptophane-4-valine-8-ornithine vasotocin] ([Mpa][dW]IVNCP[Orn]G-NH2; disulfide 1-6)	7.9	0.03	17.9	0.03	–	–
CC[C@H](C)[C@@H]1NC(=O)[C@@H](Cc2c[nH]c3ccccc23)NC(=O)CCSSC[C@@H](C(=O)N2CCC[C@H]2C(=O)N[C@H](CCCNC(=N)N)C(=O)NCC(N)=O)NC(=O)[C@H](CC(N)=O)NC(=O)[C@H]([C@@H](C)O)NC1=O [Example 12, 1-β-mercaptopropionic acid-2-D-tryptophane-4-treonine-8-D-arginine vasotocin] ([Mpa][dW]ITNCP[dR]G-NH2; disulfide 1-6)	–	0.12	6.3	0.1	8.0	–
CCOc1ccc(C[C@@H]2NC(=O)CCSSC[C@@H](C(=O)N3CCC[C@H]3C(=O)N[C@@H](CCCN)C(=O)NCC(N)=O)NC(=O)[C@H](CC(N)=O)NC(=O)[C@H](CCC(N)=O)NC(=O)[C@H]([C@@H](C)CC)NC2=O)cc1 [Example 1, 1-β-mercaptopropionic acid-2-(4-ethoxy)-phenyl alanine-8-ornithine-vasotocin] ([Mpa]Y(Et)IQNCP[Orn]G-NH2; disulfide 1-6)	8.4	–	–	–	–	–
1-β-mercaptopropionic acid-2-(4-ethoxy)-D-phenyl alanine-8-arginine vasotocin [Example 7]	–	2.5	2	37.9	8.4	–
CCOc1ccc(C[C@@H]2NC(=O)CCSSC[C@@H](C(=O)N3CCC[C@H]3C(=O)N[C@@H](CCCNC(=N)N)C(=O)NCC(N)=O)NC(=O)[C@H](CC(N)=O)NC(=O)[C@H]([C@@H](C)O)NC(=O)[C@H]([C@@H](C)CC)NC2=O)cc1 [Example 5, 1-β-mercaptopropionic acid-2-(4-ethoxy)-phenyl alanine-4-treonine-8-arginine vasotocin] ([Mpa]Y(Et)ITNCPRG-NH2; disulfide 1-6)	–	–	–	–	8.0	–
CCOc1ccc(C[C@H]2NC(=O)CCSSC[C@@H](C(=O)N3CCC[C@H]3C(=O)N[C@@H](CCCN)C(=O)NCC(N)=O)NC(=O)[C@H](CC(N)=O)NC(=O)[C@H](C(C)C)NC(=O)[C@H]([C@@H](C)CC)NC2=O)cc1 [Example 10, 1-β-mercaptopropionic acid-2-(4-ethoxy)-D-phenyl alanine-4-valine-8-ornithine vasotocin] ([Mpa][dY](Et)IVNCP[Orn]G-NH2; disulfide 1-6)	7.9	–	–	–	–	–
CCOc1ccc(C[C@H]2NC(=O)CCSSC[C@@H](C(=O)N3CCC[C@H]3C(=O)N[C@@H](CCCNC(=N)N)C(=O)NCC(N)=O)NC(=O)[C@H](CC(N)=O)NC(=O)[C@H](CCC(N)=O)NC(=O)[C@H]([C@@H](C)CC)NC2=O)cc1 [Example 2, 1-β-mercaptopropionic acid-2-(4-ethoxy)-D-phenyl alanine-8-arginine vasotocin] ([Mpa][dY](Et)IQNCPRG-NH2; disulfide 1-6)	–	–	–	–	8.7	–
CC[C@H](C)[C@@H]1NC(=O)[C@@H](Cc2ccc(O)cc2)NC(=O)CCSSC[C@@H](C(=O)N2CCC[C@H]2C(=O)N[C@@H](CCCN)C(=O)NCC(N)=O)NC(=O)[C@H](CC(N)=O)NC(=O)[C@H](C(C)C)NC1=O [Example 13, 1-β-mercaptopropionic acid-2-D-tyrosine-4-valine-8-ornithine vasotocin] ([Mpa][dY]IVNCP[Orn]G-NH2; disulfide 1-6)	8.2	0.6	4.4	1.2	–	–
